Measured values: patent publication US8992890B2, “Absorbent dressings with painkilling activity” (Fidia Farmaceutici S.p.A., priority 2011, dated 2015)

Assay: Release of diclofenac from the formulation, in vitro, Franz cell, rabbit plasma
Assay type: in vitro ADME
Description: The evaluation of the release kinetics of Diclofenac from the formulation was conducted with a Franz cell, comparing the release of the diclofenac contained in the formulation described in example 1 with an identically formulated composition containing diclofenac sodium (DCFNa) instead of diclofenac acid, at the same percentage.
The Franz cell is an instrument known to the skilled person; briefly, and very simply, it consists of two chambers, the lower one being called the receptor, while the upper one is called the donor. The two cells are separated by a porous membrane and connected to one another; the medium in which the diffusion of the active ingredient in question will be evaluated is loaded into the receptor chamber, and the product to be evaluated is loaded into the donor chamber. The medium flows against the separator membrane, and therefore comes into contact with the product loaded into the donor chamber; the active constituent spreads through the membrane to the receptor chamber, from which aliquots are sampled for testing to determine the extent of release of the active ingredient.
In this specific case, the receptor chamber was loaded with rabbit plasma (10.2 ml); approx. 73 mg of the formulation of Example 1 based on diclofenac acid (DCF/H+), accurately weighed, was placed in the donor chamber, distributed on a cellulose acetate membrane with a porosity (cut-off) of 0.2μ, wetted with rabbit plasma, and an area of 3.46 cm2. When the operating procedures of the Franz cell had been activated, 0.3 ml samples of rabbit serum were taken from the receptor chamber, which was topped up with fresh serum from time to time. The diclofenac is determined by spectrophotometric analysis, calibrating the instrument with rabbit plasma to take account of the effect of the medium on the release of the medicament.
The same procedure was followed to measure the release of diclofenac sodium (DCF/Na) formulated identically to the formulation of Example 1 in qualitative and quantitative terms.

Row | Compound | duration of release (formulation of Example 1) | drug released after approx. 8 hours (formulation of Example 1, approx. 8 hours) [%] | time within which the drug is exhausted (formulated identically to Example 1 (0.8%)) [h] | medicament released in the first 4 hours (formulated identically to Example 1 (0.8%), first 4 hours)
1 | O=C(O)Cc1ccccc1Nc1c(Cl)cccc1Cl [diclofenac acid] | at least 48 hours | 60 |  | 
2 | O=C(O)Cc1ccccc1Nc1c(Cl)cccc1Cl [diclofenac sodium] |  |  | ≤ 24 | over 90%
